US20140249147A1, “Substituted Bicyclic Aza-Heterocycles and Analogues as Sirtuin Modulators” (GlaxoSmithKline, LLC, priority 2011, published 2014)

What was measured:
SIRT1 [1] = biological target: T1, SIRT1 (Homo sapiens, UniProt Q96EB6); test: TAMRA based mass spectrometry assay of SIRT1 activation; format: biochemical; settings: TAMRA peptide substrate; for Emax: 25 min, percent maximum fold activation relative to control (100%), read-out: TAMRA % Fold Act; for TAMRA EC1.5 (μM): concentration giving 150% activation of SIRT1
T1 sequence (Q96EB6 1-747): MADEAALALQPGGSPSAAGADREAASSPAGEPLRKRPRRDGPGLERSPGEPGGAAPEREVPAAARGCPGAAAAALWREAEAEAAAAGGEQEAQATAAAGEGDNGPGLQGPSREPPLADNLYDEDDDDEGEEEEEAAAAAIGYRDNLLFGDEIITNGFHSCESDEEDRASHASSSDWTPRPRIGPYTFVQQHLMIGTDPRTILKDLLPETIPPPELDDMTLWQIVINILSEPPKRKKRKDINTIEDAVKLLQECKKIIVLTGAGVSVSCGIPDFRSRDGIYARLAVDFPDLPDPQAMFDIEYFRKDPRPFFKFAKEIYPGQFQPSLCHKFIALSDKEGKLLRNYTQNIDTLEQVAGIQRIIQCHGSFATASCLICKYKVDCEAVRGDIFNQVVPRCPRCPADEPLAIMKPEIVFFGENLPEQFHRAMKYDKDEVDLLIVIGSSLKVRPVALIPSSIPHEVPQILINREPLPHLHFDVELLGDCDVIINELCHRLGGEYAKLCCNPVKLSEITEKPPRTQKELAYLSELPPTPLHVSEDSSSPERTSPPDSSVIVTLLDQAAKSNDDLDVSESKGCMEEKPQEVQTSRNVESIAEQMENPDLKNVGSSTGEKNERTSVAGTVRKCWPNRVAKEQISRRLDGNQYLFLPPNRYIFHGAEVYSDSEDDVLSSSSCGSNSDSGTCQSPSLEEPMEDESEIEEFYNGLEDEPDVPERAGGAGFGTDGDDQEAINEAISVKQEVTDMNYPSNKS
From the text: (§1) Mass spectrometry based assays were used to identify modulators of SIRT1 activity. The TAMRA based assay utilized a peptide having 20 amino acid residues as follows: Ac-EE-K(biotin)-GQSTSSHSK(Ac)NleSTEG-K(5TMR)-EE-NH2 (SEQ ID NO: 1), wherein K(Ac) is an acetylated lysine residue and Nle is a norleucine. The peptide was labeled with the fluorophore 5TMR (excitation 540 nm/emission 580 nm) at the C-terminus. The sequence of the peptide substrate was based on p53 with several modifications. In addition, the methionine residue naturally present in the sequence was replaced with the norleucine because the methionine may be susceptible to oxidation during synthesis and purification. The Trp based assay utilized a peptide having an amino acid residues as follows: Ac—R—H—K—K(Ac)—W—NH2 (SEQ ID NO: 2).
The TAMRA based mass spectrometry assay was conducted as follows: 0.5 μM peptide substrate and 120 μM βNAD^+ was incubated with 10 nM SIRT1 for 25 minutes at 25° C. in a reaction buffer (50 mM Tris-acetate pH 8, 137 mM NaCl, 2.7 mM KCl, 1 mM MgCl2, 5 mM DTT, 0.05% BSA). The SIRT1 protein was obtained by cloning the SirT1 gene into a T7-promoter containing vector, which was then transformed and expressed in BL21(DE3) bacterial cells. Test compound was added at varying concentrations to this reaction mixture and the resulting reactions were monitored. After the 25 minute incubation with SIRT1, 10 μL of 10% formic acid was added to stop the reaction. The resulting reactions were sealed and frozen for later mass spec analysis. Determination of the amount of deacetylated substrate peptide formed (or, alternatively, the amount of O-acetyl-ADP-ribose (OAADPR) generated) by the sirtuin-mediated NAD-dependent deacetylation reaction allowed for the precise measurement of relative SIRT1 activity in the presence of varying concentrations of the test compound versus control reactions lacking the test compound.
(§2) A control for inhibition of sirtuin activity was conducted by adding 1 μL of 500 mM nicotinamide as a negative control at the start of the reaction (e.g., permits determination of maximum sirtuin inhibition). A control for activation of sirtuin activity was conducted using 10 nM of sirtuin protein, with 1 μL of DMSO in place of compound, to determine the amount of deacetylation of the substrate at a given time point within the linear range of the assay. This time point was the same as that used for test compounds and, within the linear range, the endpoint represents a change in velocity. For the above assay, SIRT1 protein was expressed and purified as follows. The SirT1 gene was cloned into a T7-promoter containing vector and transformed into BL21(DE3). The protein was expressed by induction with 1 mM IPTG as an N-terminal His-tag fusion protein at 18° C. overnight and harvested at 30,000×g. Cells were lysed with lysozyme in lysis buffer (50 mM Tris-HCl, 2 mM Tris[2-carboxyethyl]phosphine (TCEP), 10 μM ZnCl2, 200 mM NaCl) and further treated with sonication for 10 min for complete lysis. The protein was purified over a Ni-NTA column (Amersham) and fractions containing pure protein were pooled, concentrated and run over a sizing column (Sephadex S200 26/60 global). The peak containing soluble protein was collected and run on an Ion-exchange column (MonoQ). Gradient elution (200 mM-500 mM NaCl) yielded pure protein. This protein was concentrated and dialyzed against dialysis buffer (20 mM Tris-HCl, 2 mM TCEP) overnight. The protein was aliquoted and frozen at −80° C. until further use.
Sirtuin-modulating compounds of Formula (I) that activated SIRT1 were identified using the assay described above and are shown below in Table 1. The EC1.5 values represent the concentration of test compounds that result in 150% activation of SIRT1. The EC1.5 values for the activating compounds of Formula (I) are represented by A (EC1.5<1 μM), B (EC1.5 1-25 μM), C (EC1.5>25 μM). […]

SIRT1 [2] = biological target: T1, SIRT1; test: Trp mass spectrometry assay of SIRT1 activation; format: biochemical; settings: Trp peptide substrate
From the text: as §1
The Trp mass spectrometry assay was conducted as follows. 0.5 μM peptide substrate and 120 μM βNAD^+ were incubated with 10 nM SIRT1 for 25 minutes at 25° C. in a reaction buffer (50 mM HEPES pH 7.5, […], 1 mM DTT, 0.05% BSA). The SIRT1 protein was obtained by cloning the SirT 1 gene into a T7-promoter containing vector, which was then expressed in BL21(DE3) bacterial cells and purified as described in further detail below. Test compound was added at varying concentrations to this reaction mixture and the resulting reactions were monitored. After the 25 minute incubation with SIRT1, 10 μL of 10% formic acid was added to stop the reaction. The resulting reactions were sealed and frozen for later mass spec analysis. The relative SIRT1 activity was then determined by measuring the amount of O-acetyl-ADP-ribose (OAADPR) formed (or, alternatively, the amount of deacetylated Trp peptide generated) by the NAD-dependent sirtuin deacetylation reaction in the presence of varying concentrations of the test compound versus control reactions lacking the test compound. The degree to which the test agent activated deacetylation by SIRT1 was expressed as EC1.5 (i.e., the concentration of compound required to increase SIRT1 activity by 50% over the control lacking test compound), and Percent Maximum Activation (i.e., the maximum activity relative to control (100%) obtained for the test compound).
as §2
Sirtuin-modulating compounds of Formula (I) that activated SIRT1 were identified using the assay described above and are shown below in Table 1. […]

Structure (SMILES) | Emax (SIRT1 [1]) [%] | TAMRA EC1.5 (μM) (SIRT1 [1]) | TYP EC1.5 (μM) (SIRT1 [2]; concentration giving 150% activation of SIRT1) | TYP % Fold Act (SIRT1 [2]; percent maximum fold activation relative to control (100%))
O=C(Nc1ccccn1)c1ccc2nnc(-c3cccc(OC(F)(F)F)c3)n2n1 [Compound 2] | < 350 | C (EC1.5>25 μM) | – | –
O=C(Nc1ccccn1)c1ccc2nnc(-c3cccc(C(F)(F)F)c3)n2n1 [Compound 3] | – | C (EC1.5>25 μM) | – | –
O=C(Nc1cccc(C(F)(F)F)n1)c1ccc2nnc(-c3cccc(F)c3)n2n1 [Compound 7] | < 350 | – | – | –
O=C(Nc1cccc(C(F)(F)F)n1)c1ccc2ncc(-c3ccccc3F)n2n1 [Compound 9] | < 350 | B (EC1.5 1-25 μM) | – | –
O=C(Nc1ccc(F)cn1)c1ccc2ncc(-c3cccc(C(F)(F)F)c3)n2n1 [Compound 11] | < 350 | B (EC1.5 1-25 μM) | – | –
O=C(Nc1ccnc(C(F)(F)F)c1)c1ccc2ncc(-c3ccccc3F)n2n1 [Compound 12] | < 350 | B (EC1.5 1-25 μM) | – | –
O=C(Nc1ccc2ncc(-c3ccccc3F)n2n1)c1cnccn1 [Compound 13] | < 350 | C (EC1.5>25 μM) | – | –
O=C(Nc1ccc2ncc(-c3cccc(F)c3)n2n1)c1nccs1 [Compound 17] | < 350 | B (EC1.5 1-25 μM) | – | –
O=C(Nc1ccc2ncc(-c3cccc(F)c3)n2n1)c1cnccn1 [Compound 20] | < 350 | B (EC1.5 1-25 μM) | – | –
O=C(Nc1ccc2ncc(-c3ccccc3Cl)n2n1)c1nccs1 [Compound 24] | < 350 | B (EC1.5 1-25 μM) | – | –
O=C(Nc1ccc2ncc(-c3ccccc3F)n2n1)c1ncccn1 [Compound 25] | < 350 | B (EC1.5 1-25 μM) | – | –
O=C(Nc1ccc2ncc(-c3cccc(Cl)c3)n2n1)c1nccs1 [Compound 27] | < 350 | B (EC1.5 1-25 μM) | – | –
O=C(Nc1ccc2ncc(-c3cccc(F)c3)n2n1)c1ccccn1 [Compound 28] | < 350 | B (EC1.5 1-25 μM) | – | –
O=C(Nc1ccnc(C(F)(F)F)c1)c1ccc2ncc(-c3ccccc3Cl)n2n1 [Compound 29] | < 350 | B (EC1.5 1-25 μM) | – | –
O=C(Nc1ccc2ncc(-c3cccc(Cl)c3)n2n1)c1ccccn1 [Compound 30] | < 350 | B (EC1.5 1-25 μM) | – | –
O=C(Nc1ccc2ncc(-c3cccc(C(F)(F)F)c3)n2n1)c1ccccn1 [Compound 31] | < 350 | B (EC1.5 1-25 μM) | – | –
O=C(Nc1cccc(N2CCOCC2)n1)c1ccc2ncc(-c3ccccc3F)n2n1 [Compound 32] | < 350 | C (EC1.5>25 μM) | – | –

The remaining lines, values ahead:

Emax (SIRT1 [1]) [%] | TAMRA EC1.5 (μM) (SIRT1 [1]) | TYP EC1.5 (μM) (SIRT1 [2]; concentration giving 150% activation of SIRT1) | TYP % Fold Act (SIRT1 [2]; percent maximum fold activation relative to control (100%)) | Structure (SMILES)
≥ 350 | A (EC1.5<1 μM) | – | – | O=C(Nc1ccc2ncc(-c3ccccc3Cl)n2n1)c1ncccn1 [Compound 33]
< 350 | A (EC1.5<1 μM) | – | – | O=C(Nc1ccc2ncc(-c3cccc(Cl)c3)n2n1)c1cnccn1 [Compound 34]
< 350 | A (EC1.5<1 μM) | – | – | Cn1ccc(C(=O)Nc2ccc3ncc(-c4cccc(Cl)c4)n3n2)n1 [Compound 35]
< 350 | A (EC1.5<1 μM) | – | – | Cn1ccc(C(=O)Nc2ccc3ncc(-c4ccccc4F)n3n2)n1 [Compound 36]
< 350 | B (EC1.5 1-25 μM) | – | – | O=C(Nc1ccc2ncc(-c3cccc(Cl)c3)n2n1)c1ncccn1 [Compound 37]
– | – | C (EC1.5>25 μM) | B (Fold Activation <350%) | O=C(Nc1ccc2ncc(-c3cccc(C(F)(F)F)c3)n2n1)c1ncccn1 [Compound 39]
< 350 | C (EC1.5>25 μM) | – | – | Cn1ccc(C(=O)Nc2ccc3ncc(-c4cccc(C(F)(F)F)c4)n3n2)n1 [Compound 40]
< 350 | C (EC1.5>25 μM) | – | – | O=C(Nc1ccc2ncc(-c3ccccc3Cl)n2n1)c1ccccn1 [Compound 41]
< 350 | C (EC1.5>25 μM) | – | – | CS(=O)(=O)c1cccc(-c2nnc3ccc(C(=O)Nc4nccs4)nn23)c1 [Compound 42]
< 350 | C (EC1.5>25 μM) | – | – | Cn1ccc(C(=O)Nc2ccc3ncc(-c4cccc(F)c4)n3n2)n1 [Compound 43]
< 350 | C (EC1.5>25 μM) | – | – | Cn1ccc(C(=O)Nc2ccc3ncc(-c4ccccc4Cl)n3n2)n1 [Compound 45]
< 350 | B (EC1.5 1-25 μM) | – | – | O=C(Nc1cccc(N2CCOCC2)n1)c1ccc2ncc(-c3cccc(Cl)c3)n2n1 [Compound 46]
≥ 350 | A (EC1.5<1 μM) | – | – | O=C(Nc1ccnc(C2CCOCC2)c1)c1ccc2ncc(-c3cccc(C(F)(F)F)c3)n2n1 [Compound 47]
< 350 | C (EC1.5>25 μM) | – | – | O=C(Nc1nccs1)c1ccc2nnc(-c3cccc(C(F)(F)F)c3)n2n1 [Compound 49]
< 350 | C (EC1.5>25 μM) | – | – | O=C(Nc1ccnc(C(F)(F)F)c1)c1ccc2ncc(-c3cccc(F)c3)n2n1 [Compound 50]
